According to US12559492B2, “BRAF degraders” (C4 Therapeutics, Inc., priority 2020, dated 2026):

Biological target: BRAF^V600E protein (Homo sapiens, UniProt P15056, V600E)
Test: HiBiT cellular BRAF V600E degradation assay
Type: cell-based
Conditions: 24 h incubation; for DC50: A375.10 cells (HiBiT tag knocked in at N-terminal of BRAF V600E), concentration at which 50% of total cellular BRAF V600E is degraded; for Emax: A375.10 cells, Emax = amount of residual protein remaining in the cell after compound treatment, read-out: HiBit 24 h Emax

BRAF^V600E protein, sequence (P15056 whole entry V600E): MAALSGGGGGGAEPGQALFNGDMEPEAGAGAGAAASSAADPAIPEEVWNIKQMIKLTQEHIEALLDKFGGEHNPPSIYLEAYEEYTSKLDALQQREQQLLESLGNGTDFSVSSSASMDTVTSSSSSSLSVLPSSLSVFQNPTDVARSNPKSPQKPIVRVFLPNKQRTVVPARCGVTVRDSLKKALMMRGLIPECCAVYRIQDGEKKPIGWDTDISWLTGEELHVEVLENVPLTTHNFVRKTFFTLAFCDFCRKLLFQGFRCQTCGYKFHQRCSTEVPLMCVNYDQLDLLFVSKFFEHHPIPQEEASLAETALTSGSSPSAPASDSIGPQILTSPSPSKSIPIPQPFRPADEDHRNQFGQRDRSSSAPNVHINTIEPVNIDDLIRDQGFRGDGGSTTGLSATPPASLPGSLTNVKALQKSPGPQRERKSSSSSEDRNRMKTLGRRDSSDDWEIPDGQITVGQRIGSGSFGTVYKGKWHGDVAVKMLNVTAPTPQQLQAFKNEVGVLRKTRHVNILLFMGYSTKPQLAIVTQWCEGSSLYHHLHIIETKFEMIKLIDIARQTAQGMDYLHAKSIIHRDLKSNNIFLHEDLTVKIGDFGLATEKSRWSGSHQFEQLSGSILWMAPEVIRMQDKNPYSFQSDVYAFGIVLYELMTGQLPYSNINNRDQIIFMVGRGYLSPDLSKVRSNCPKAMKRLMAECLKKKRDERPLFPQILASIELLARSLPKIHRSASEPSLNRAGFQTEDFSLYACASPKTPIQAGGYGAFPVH

CCN(C)S(=O)(=O)Nc1ccc(F)c(C(=O)c2c[nH]c3ncc(-c4ccc(CN5CCN(C(=O)CN6CCN(c7cccc(NC8CCC(=O)NC8=O)c7)CC6)CC5)cc4)cc23)c1F (stereo not drawn) [Example A25, 5-[4-[[4-[2-[4-[3-[(2,6-Dioxopiperidin-3-yl)amino]phenyl]piperazin-1-yl]acetyl]piperazin-1-yl]methyl]phenyl]-3-[3-[[ethyl(methyl)sulfamoyl]amino]-2,6-difluorobenzoyl]-1H-pyrrolo[2,3-b]pyridine; 2,2,2-trifluoroacetic acid]
DC50: 101 nM
Emax: 18%

CCN(C)S(=O)(=O)Nc1ccc(F)c(C(=O)c2c[nH]c3ncc(-c4ccc(CN5CCN(C(=O)CCCN6CCC(c7ccc(NC8CCC(=O)NC8=O)cc7)CC6)CC5)cc4)cc23)c1F (stereo not drawn) [Example A26, 5-[4-[[4-[4-[4-[4-[(2,6-Dioxopiperidin-3-yl)amino]phenyl]piperidin-1-yl]butanoyl]piperazin-1-yl]methyl]phenyl]-3-[3-[[ethyl(methyl)sulfamoyl]amino]-2,6-difluorobenzoyl]-1H-pyrrolo[2,3-b]pyridine; 2,2,2-trifluoroacetic acid]
DC50: 166 nM
Emax: 19%

O=C1CCC(Oc2ccc(C3CCN(C(=O)NC4CCN(Cc5ccc(-c6cnc7[nH]cc(C(=O)c8c(F)ccc(NS(=O)(=O)N9CCCC9)c8F)c7c6)cc5)CC4)CC3)cc2)C(=O)N1 (stereo not drawn) [Example A27, N-[1-[[4-[3-[2,6-Difluoro-3-(pyrrolidin-1-ylsulfonylamino)benzoyl]-1H-pyrrolo[2,3-b]pyridin-5-yl]phenyl]methyl]piperidin-4-yl]-4-[4-(2,6-dioxopiperidin-3-yl)oxyphenyl]piperidine-1-carboxamide; formic acid]
DC50: 104 nM
Emax: 30%

CCC(C)S(=O)(=O)Nc1ccc(F)c(C(=O)c2c[nH]c3ncc(-c4ccc(N5CCN(C(=O)CN6CCC(c7ccc(OC8CCC(=O)NC8=O)cc7)CC6)CC5)nc4)cc23)c1F (stereo not drawn) [Example A28, N-[3-[5-[6-[4-[2-[4-[4-(2,6-Dioxopiperidin-3-yl)oxyphenyl]piperidin-1-yl]acetyl]piperazin-1-yl]pyridin-3-yl]-1H-pyrrolo[2,3-b]pyridine-3-carbonyl]-2,4-difluorophenyl]butane-2-sulfonamide]
DC50: 12 nM
Emax: 14%

CCC(C)S(=O)(=O)Nc1ccc(F)c(C(=O)c2c[nH]c3ncc(-c4ccc(N5CCN(C(=O)CN6CCC(c7ccc(NC8CCC(=O)NC8=O)cc7)CC6)CC5)nc4)cc23)c1F (stereo not drawn) [Example A29, N-[3-[5-[6-[4-[2-[4-[4-[(2,6-Dioxopiperidin-3-yl)amino]phenyl]piperidin-1-yl]acetyl]piperazin-1-yl]pyridin-3-yl]-1H-pyrrolo[2,3-b]pyridine-3-carbonyl]-2,4-difluorophenyl]butane-2-sulfonamide]
DC50: 3.05 nM
Emax: 10.9%

CCN(C)S(=O)(=O)Nc1ccc(F)c(C(=O)c2c[nH]c3ncc(-c4ccc(OC5CCN(C(=O)CN6CCC(c7ccc(OC8CCC(=O)NC8=O)cc7)CC6)CC5)cc4)cc23)c1F (stereo not drawn) [Example A30, 5-[4-[1-[2-[4-[4-(2,6-Dioxopiperidin-3-yl)oxyphenyl]piperidin-1-yl]acetyl]piperidin-4-yl]oxyphenyl]-3-[3-[[ethyl(methyl)sulfamoyl]amino]-2,6-difluorobenzoyl]-1H-pyrrolo[2,3-b]pyridine]
DC50: 53 nM
Emax: 13%

CCN(C)S(=O)(=O)Nc1ccc(F)c(C(=O)c2c[nH]c3ncc(-c4ccc(OC5CCN(C(=O)CN6CCC(c7ccc(NC8CCC(=O)NC8=O)cc7)CC6)CC5)cc4)cc23)c1F (stereo not drawn) [Example A31, 5-[4-[1-[2-[4-[4-[(2,6-dioxopiperidin-3-yl)amino]phenyl]piperidin-1-yl]acetyl]piperidin-4-yl]oxyphenyl]-3-[3-[[ethyl(methyl)sulfamoyl]amino]-2,6-difluorobenzoyl]-1H-pyrrolo[2,3-b]pyridine]
DC50: 15 nM
Emax: 12%

O=C1CCC(Oc2ccc(C3CCN(CC(=O)N4CCN(c5ccc(-c6cnc7[nH]cc(C(=O)c8c(F)ccc(NS(=O)(=O)C9CCCCC9)c8F)c7c6)cn5)CC4)CC3)cc2)C(=O)N1 (stereo not drawn) [Example A32, N-[3-[5-[6-[4-[2-[4-[4-(2,6-Dioxopiperidin-3-yl)oxyphenyl]piperidin-1-yl]acetyl]piperazin-1-yl]pyridin-3-yl]-1H-pyrrolo[2,3-b]pyridine-3-carbonyl]-2,4-difluorophenyl]cyclohexanesulfonamide]
DC50: 39 nM
Emax: 15%

O=C1CCC(Nc2ccc(C3CCN(CC(=O)N4CCN(c5ccc(-c6cnc7[nH]cc(C(=O)c8c(F)ccc(NS(=O)(=O)C9CCCCC9)c8F)c7c6)cn5)CC4)CC3)cc2)C(=O)N1 (stereo not drawn) [Example A33, N-[3-[5-[6-[4-[2-[4-[4-[(2,6-Dioxopiperidin-3-yl)amino]phenyl]piperidin-1-yl]acetyl]piperazin-1-yl]pyridin-3-yl]-1H-pyrrolo[2,3-b]pyridine-3-carbonyl]-2,4-difluorophenyl]cyclohexanesulfonamide]
DC50: 34 nM
Emax: 13%

CCN(C)S(=O)(=O)Nc1ccc(F)c(C(=O)c2c[nH]c3ncc(-c4cnc(N5CCC(NC(=O)N6CCC(c7ccc(NC8CCC(=O)NC8=O)cc7)CC6)CC5)nc4)cc23)c1F (stereo not drawn) [Example A34, 4-[4-[(2,6-Dioxopiperidin-3-yl)amino]phenyl]-N-[1-[5-[3-[3-[[ethyl(methyl)sulfamoyl]amino]-2,6-difluorobenzoyl]-1H-pyrrolo[2,3-b]pyridin-5-yl]pyrimidin-2-yl]piperidin-4-yl]piperidine-1-carboxamide;formic acid]
DC50: 79 nM
Emax: 25%

CCN(C)S(=O)(=O)Nc1ccc(F)c(C(=O)c2c[nH]c3ncc(-c4ccc(N5CCN(C(=O)CCN6CCC(c7ccc(OC8CCC(=O)NC8=O)cc7)CC6)CC5)nc4)cc23)c1F (stereo not drawn) [Example A35, 5-[6-[4-[3-[4-[4-(2,6-Dioxopiperidin-3-yl)oxyphenyl]piperidin-1-yl]propanoyl]piperazin-1-yl]pyridin-3-yl]-3-[3-[[ethyl(methyl)sulfamoyl]amino]-2,6-difluorobenzoyl]-1H-pyrrolo[2,3-b]pyridine]
DC50: 54 nM
Emax: 21%

CCN(C)S(=O)(=O)Nc1ccc(F)c(C(=O)c2c[nH]c3ncc(-c4ccc(N5CCN(C(=O)CN6CCC(c7ccc(NC8CCC(=O)NC8=O)cc7)CC6)CC5)cc4)cc23)c1F (stereo not drawn) [Example A36, 5-[4-[4-[2-[4-[4-[(2,6-Dioxopiperidin-3-yl)amino]phenyl]piperidin-1-yl]acetyl]piperazin-1-yl]phenyl]-3-[3-[[ethyl(methyl)sulfamoyl]amino]-2,6-difluorobenzoyl]-1H-pyrrolo[2,3-b]pyridine]
DC50: 3 nM
Emax: 10%

CCN(C)S(=O)(=O)Nc1ccc(F)c(C(=O)c2c[nH]c3ncc(-c4ccc(N5CCN(C(=O)CN6Cc7ccc(NC8CCC(=O)NC8=O)cc7C6)CC5)nc4)cc23)c1F (stereo not drawn) [Example A37, 5-[6-[4-[2-[5-[(2,6-Dioxopiperidin-3-yl)amino]-1,3-dihydroisoindol-2-yl]acetyl]piperazin-1-yl]pyridin-3-yl]-3-[3-[[ethyl(methyl)sulfamoyl]amino]-2,6-difluorobenzoyl]-1H-pyrrolo[2,3-b]pyridine]
DC50: 14.6 nM
Emax: 20.6%

CCN(C)S(=O)(=O)Nc1ccc(F)c(C(=O)c2c[nH]c3ncc(-c4ccc(CN5CCN(C(=O)CN6Cc7ccc(NC8CCC(=O)NC8=O)cc7C6)CC5)nc4)cc23)c1F (stereo not drawn) [Example A38, 5-[6-[[4-[2-[5-[(2,6-Dioxopiperidin-3-yl)amino]-1,3-dihydroisoindol-2-yl]acetyl]piperazin-1-yl]methyl]pyridin-3-yl]-3-[3-[[ethyl(methyl)sulfamoyl]amino]-2,6-difluorobenzoyl]-1H-pyrrolo[2,3-b]pyridine]
DC50: 47 nM
Emax: 20%

CCN(C)S(=O)(=O)Nc1ccc(F)c(C(=O)c2c[nH]c3ncc(-c4ccc(N5CCN(C(=O)CN(C)C(=O)Cc6ccc(NC7CCC(=O)NC7=O)cc6)CC5)nc4)cc23)c1F (stereo not drawn) [Example A39, 2-[4-[(2,6-dioxopiperidin-3-yl)amino]phenyl]-N-[2-[4-[5-[3-[3-[[ethyl(methyl)sulfamoyl]amino]-2,6-difluorobenzoyl]-1H-pyrrolo[2,3-b]pyridin-5-yl]pyridin-2-yl]piperazin-1-yl]-2-oxoethyl]-N-methylacetamide]
DC50: 35 nM
Emax: 18%

CCN(C)S(=O)(=O)Nc1ccc(F)c(C(=O)c2c[nH]c3ncc(-c4cnc(N5CCC(NC(=O)N6CCC(c7ccc(NC8CCC(=O)NC8=O)cn7)CC6)CC5)nc4)cc23)c1F (stereo not drawn) [Example A40, 4-[5-[(2,6-Dioxopiperidin-3-yl)amino]pyridin-2-yl]-N-[1-[5-[3-[3-[[ethyl(methyl)sulfamoyl]amino]-2,6-difluorobenzoyl]-1H-pyrrolo[2,3-b]pyridin-5-yl]pyrimidin-2-yl]piperidin-4-yl]piperidine-1-carboxamide;formic acid]
DC50: 8 nM
Emax: 17%

CCN(C)S(=O)(=O)Nc1ccc(F)c(C(=O)c2c[nH]c3ncc(C#CC4CCN(C(=O)CN5CCC(c6ccc(NC7CCC(=O)NC7=O)cc6)CC5)CC4)cc23)c1F (stereo not drawn) [Example A43, 5-[2-[1-[2-[4-[4-[(2,6-Dioxopiperidin-3-yl)amino]phenyl]piperidin-1-yl]acetyl]piperidin-4-yl]ethynyl]-3-[3-[[ethyl(methyl)sulfamoyl]amino]-2,6-difluorobenzoyl]-1H-pyrrolo[2,3-b]pyridine]
DC50: 57 nM
Emax: 32%

CCN(C)S(=O)(=O)Nc1ccc(F)c(C(=O)c2c[nH]c3ncc(-c4ccc(C5CCN(C(=O)CN6CCC(c7ccc(NC8CCC(=O)NC8=O)cc7)CC6)CC5)cc4)cc23)c1F (stereo not drawn) [Example A44, 5-[4-[1-[2-[4-[4-[(2,6-Dioxopiperidin-3-yl)amino]phenyl]piperidin-1-yl]acetyl]piperidin-4-yl]phenyl]-3-[3-[[ethyl(methyl)sulfamoyl]amino]-2,6-difluorobenzoyl]-1H-pyrrolo[2,3-b]pyridine]
DC50: 10.4 nM
Emax: 9.52%
